Legend:
Assay type in all cases: in vivo, human
[1] = system: patients treated with Methadone in the START trial; assay: PK model (predicted exposure) binning vs Methadone completion
Method: (§1) For the model analyses, models were developed that sort patients into one of three categories, Green (‘G’) Yellow (‘Y’) or Red (‘R’). Patients determined to be high risk for non-completion by the model are placed into the Red Bin. Patients at intermediate risk of non-completion are placed in the Yellow Bin, and for this study, Yellow Bin patients are treated the same as patients found to be at Low Risk of non-completion, or those who are placed in the Green Bin. Thus, the Green and Yellow bins are combined for analysis.
The PK model represents a physiologically based pharmacokinetic algorithm that combines combinatorial pharmacogenetics with a physiological algorithm for predicting medication exposure, as described elsewhere herein. Model assignments to G Y or R were based on the therapeutic ranges provided by the literature for methadone as shown in Table 15.
(§2) Samples from patients treated with Methadone in the START trial described in Example 1 above were used (N=352). […] Each model was tested as described below against Sample 1, Sample 2 and/or the Full Sample.
(§3) Pearson's product moment, Chi-square with Yates correction were calculated. Diagnostic tests, odds ratios, Pearson's product moment, Chi-square with Yates correction were calculated using MEDCALC and R version 3.3.1.

[2] = system: patients treated with Methadone in the START trial; assay: PD Model 3 binning vs Methadone completion
Method: as §1
PD Model 3: The completion percentage was calculated for each genotype. For each genotype, the raw percent difference of completion compared to the mean of completion was assigned as the genotype's PD score. The patient's PD risk was calculated by summing the total genotype risk score. Bins were assigned over the range of scores that maximized completers in Green and Yellow bins and non-completers in the Red bin.
as §2, §3

[3] = system: patients treated with Methadone in the START trial; assay: PK/PD Model 2 binning vs Methadone completion
Method: as §1
Three separate PK/PD Models were generated by combining the PK model with each of the three PD models separately as follows. For each PKPD model, the corresponding PD risk score was added to the raw PK score (bin). A total PD risk score that was negative, represents a reduction of the baseline PK score, while a total PD risk score that was positive represented an increase in the baseline PK score.
as §2, §3

[4] = PD Model 3, Full Sample, Green bin, Risk Score −2.3 to −0.3
[5] = PD Model 3, Full Sample, Red bin, Risk Score 1+
[6] = PD Model 3, Full Sample, Yellow bin, Risk Score −0.2 to 0.9
[7] = PD Model 3, Sample 1, Green bin, Risk Score −1.8 to −0.3
[8] = PD Model 3, Sample 1, Red bin, Risk Score 1 to 2.1
[9] = PD Model 3, Sample 1, Yellow bin, Risk Score −0.2 to 0.9
[10] = PD Model 3, Sample 2, Green bin, Risk Score −2.1 to −0.7
[11] = PD Model 3, Sample 2, Red bin, Risk Score 0.2 to 2
[12] = PD Model 3, Sample 2, Yellow bin, Risk Score −0.6 to 0.1
[13] = PK/PD Model 2, Full Sample, Green bin, Risk Score −2.2 to 1
[14] = PK/PD Model 2, Full Sample, Red bin, Risk Score 2.7 to 4.7
[15] = PK/PD Model 2, Full Sample, Yellow bin, Risk Score 1.1 to 2.5
[16] = PK/PD Model 2, Sample 1, Green bin, Risk Score −2.3 to 2
[17] = PK/PD Model 2, Sample 1, Red bin, Risk Score 3.3 to 6.7
[18] = PK/PD Model 2, Sample 1, Yellow bin, Risk Score 2.2 to 3.2
[19] = PK/PD Model 2, Sample 2, Green bin, Risk Score −2.2 to 1
[20] = PK/PD Model 2, Sample 2, Red bin, Risk Score 2.7 to 4.7
[21] = PK/PD Model 2, Sample 2, Yellow bin, Risk Score 1.1 to 2.5

**Q.** `CCC(=O)C(CC(C)N(C)C)(c1ccccc1)c1ccccc1` (stereo not drawn) [Methadone, methadone] was tested. Which Completers ([1]; Full Sample, Green bin) did it give?
**A.** 181

**Q.** What about the “Non Completers” value ([1]; Full Sample, Green bin) of the same molecule?
**A.** 11

**Q.** What about the Completers ([1]; Full Sample, Red bin) of the same molecule?
**A.** 33

**Q.** And the “Non Completers” value ([1]; Full Sample, Red bin)?
**A.** 22

**Q.** What about the Completers ([1]; Full Sample, Yellow bin) of the same molecule?
**A.** 93

**Q.** What about the “Non Completers” value ([1]; Full Sample, Yellow bin) of the same molecule?
**A.** 12

**Q.** And the Completers ([1]; Sample 1, Green bin)?
**A.** 91

**Q.** What about the “Non Completers” value ([1]; Sample 1, Green bin) of the same molecule?
**A.** 6

**Q.** And the Completers ([1]; Sample 1, Red bin)?
**A.** 12

**Q.** What about the “Non Completers” value ([1]; Sample 1, Red bin) of the same molecule?
**A.** 8

**Q.** And the Completers ([1]; Sample 1, Yellow bin)?
**A.** 53

**Q.** What about the “Non Completers” value ([1]; Sample 1, Yellow bin) of the same molecule?
**A.** 6

**Q.** What about the Completers ([1]; Sample 2, Green bin) of the same molecule?
**A.** 94

**Q.** And the “Non Completers” value ([1]; Sample 2, Green bin)?
**A.** 7

**Q.** And the Completers ([1]; Sample 2, Red bin)?
**A.** 13

**Q.** What about the “Non Completers” value ([1]; Sample 2, Red bin) of the same molecule?
**A.** 6

**Q.** And the Completers ([1]; Sample 2, Yellow bin)?
**A.** 52

**Q.** What about the “Non Completers” value ([1]; Sample 2, Yellow bin) of the same molecule?
**A.** 4

**Q.** And the Completers [2, 4]?
**A.** 137

**Q.** What about the “Non Completers” value [2, 4] of the same molecule?
**A.** 9

**Q.** And the Completers [2, 5]?
**A.** 39

**Q.** What about the “Non Completers” value [2, 5] of the same molecule?
**A.** 10

**Q.** And the Completers [2, 6]?
**A.** 131

**Q.** What about the “Non Completers” value [2, 6] of the same molecule?
**A.** 26

**Q.** What about the Completers [2, 7] of the same molecule?
**A.** 74

**Q.** And the “Non Completers” value [2, 7]?
**A.** 2

**Q.** What about the Completers [2, 8] of the same molecule?
**A.** 20

**Q.** And the “Non Completers” value [2, 8]?
**A.** 7

**Q.** And the Completers [2, 9]?
**A.** 62

**Q.** What about the “Non Completers” value [2, 9] of the same molecule?
**A.** 11

**Q.** And the Completers [2, 10]?
**A.** 77

**Q.** What about the “Non Completers” value [2, 10] of the same molecule?
**A.** 2

**Q.** And the Completers [2, 11]?
**A.** 29

**Q.** And the “Non Completers” value [2, 11]?
**A.** 9

**Q.** And the Completers [2, 12]?
**A.** 53

**Q.** And the “Non Completers” value [2, 12]?
**A.** 6

**Q.** What about the Completers [3, 13] of the same molecule?
**A.** 167

**Q.** What about the “Non Completers” value [3, 13] of the same molecule?
**A.** 8

**Q.** What about the Completers [3, 14] of the same molecule?
**A.** 60

**Q.** What about the “Non Completers” value [3, 14] of the same molecule?
**A.** 20

**Q.** What about the Completers [3, 15] of the same molecule?
**A.** 80

**Q.** And the “Non Completers” value [3, 15]?
**A.** 17

**Q.** And the Completers [3, 16]?
**A.** 88

**Q.** What about the “Non Completers” value [3, 16] of the same molecule?
**A.** 3

**Q.** What about the Completers [3, 17] of the same molecule?
**A.** 27

**Q.** And the “Non Completers” value [3, 17]?
**A.** 8

**Q.** What about the Completers [3, 18] of the same molecule?
**A.** 41

**Q.** And the “Non Completers” value [3, 18]?
**A.** 9

**Q.** And the Completers [3, 19]?
**A.** 92

**Q.** And the “Non Completers” value [3, 19]?
**A.** 2

**Q.** What about the Completers [3, 20] of the same molecule?
**A.** 19

**Q.** And the “Non Completers” value [3, 20]?
**A.** 9

**Q.** And the Completers [3, 21]?
**A.** 48

**Q.** What about the “Non Completers” value [3, 21] of the same molecule?
**A.** 6
